Measurements published in patent US10344019B2 (priority 2010, dated 2019).
Read-outs that look alike come from different tables or passages of the source.

Experiments:
Assay type in all cases: cell-based
[1] = test system: HCV 1a RLuc cells (dicistronic genotype 1a H77 replicon, RLuc reporter); experiment: microbe, parasite or virus in culture; settings: Hepatitis C virus, read-out: 1a
Method in brief: (§1)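 Renilla luciferase HCV replicon cells: dicistronic 1b Con1, 1a H77 or 2a JFH-1 replicons, or a JFH-1 chimera carrying J6 NS5A (M31 present). Compound in DMSO serial dilutions, 72 h incubation, then lysis and luciferase read. EC50 by non-linear regression.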

[2] = test system: HCV 2a JFH-1 Rluc cells (dicistronic genotype 2a JFH-1 replicon, RLuc reporter); experiment: microbe, parasite or virus in culture; settings: Hepatitis C virus, read-out: 2a JFH
Method in brief: as §1

[3] = test system: HCV 2b Rluc cells (NS5A chimeric genotype 2a JFH-1 replicon with genotype 2b MD2b-1 NS5A gene, M31 present); experiment: microbe, parasite or virus in culture; settings: Hepatitis C virus, read-out: 2b
Method in brief: (§2)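 Replicon cells stably carrying the listed RLuc-encoding dicistronic replicons were seeded and treated with DMSO serial dilutions of compound (10 mM stocks) diluted into culture medium. After 72 h, cells were lysed and Renilla luciferase activity measured. EC50 was derived by non-linear regression.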

[4] = test system: HCV 3a RLuc cells (NS5A chimeric genotype 1b Con1 replicon with consensus genotype 3a NS5A gene); experiment: microbe, parasite or virus in culture; settings: Hepatitis C virus
Method in brief: as §2

[5] = test system: Q30R in genotype 1a NS5A, 1a Rluc replicon transfected into Huh-7 cured-51 cells; experiment: HCV replicon assay, resistance mutant 1a Q30R; settings: Hepatitis C virus, Huh-7, read-out: 1a Q30R
Method: Evaluation of cell-based anti-HCV activity: Antiviral potency (EC50) was determined using a Renilla luciferase (RLuc)-based HCV replicon reporter assay. To perform the assay for genotype 1 and 2a JFH-1, HCV 1b RLuc cells (harboring a dicistronic genotype 1b Con1 replicon that encodes a RLuc reporter), or HCV 1a RLuc cells (harboring a dicistronic genotype 1a H77 replicon that encodes a RLuc reporter), or HCV 2a JFH-1 Rluc cells (harboring a dicistronic genotype 2a JFH-1 replicon that encodes a RLuc reporter) were dispensed into 384-well plates. To perform the assay for genotype 2a (with M31 present) or 2b, HCV 2a Rluc or 2b Rluc cells (both with M31 present) harboring a dicistronic NS5A chimeric genotype 2a JFH-1 replicon that encodes a RLuc reporter and either genotype 2a J6 strain NS5A gene or genotype 2b MD2b-1 NS5A gene (based on Los Alamos HCV database isolates, both with M31 present) respectively, were dispensed into 384-well plates. To perform the assay for genotype 3 and 4, HCV 3a RLuc or 4a Rluc cells harboring a dicistronic NS5A chimeric genotype 1b Con1 replicon that encodes a RLuc reporter and either a consensus genotype 3a NS5A gene or genotype 4a NS5A gene (based on Los Alamos HCV database isolates) respectively, were dispensed into 384-well plates. Compounds were re-suspended in DMSO at a concentration of 10 mM and serially diluted in DMSO either manually or using an automated pipeting instrument. Serially diluted compounds were mixed with cell culture media and added to the seeded cells. […] 72 hours later, cells were lysed and Renilla luciferase activity quantified as recommended by the manufacturer (Promega-Madison, Wis.). Non-linear regression was performed to calculate EC50 values.
To determine the antiviral potency (EC50) against resistance mutants, resistance mutations, including M28T, Q30R, Q30H, L31M, and Y93C in genotype 1a NS5A and Y93H in genotype 1b NS5A, were introduced individually into either 1a Rluc or 1b Rluc replicons described above by site directed mutagenesis. Replicon RNA of each resistant mutant was transfected into Huh-7 cured-51 cells and antiviral potency was determined on these transfected cells as described above.

[6] = test system: HCV 2a Rluc cells (NS5A chimeric genotype 2a JFH-1 replicon with genotype 2a J6 strain NS5A gene, M31 present); experiment: HCV replicon reporter assay, genotype 2a J6 (M31 present); settings: Hepatitis C virus, read-out: 2a J6
Method in brief: as §1

[7] = test system: HCV 1b RLuc cells (dicistronic genotype 1b Con1 replicon, RLuc reporter); experiment: microbe, parasite or virus in culture; settings: Hepatitis C virus, read-out: 1b (nM)
Method in brief: as §1

[8] = test system: HCV 4a Rluc cells (NS5A chimeric genotype 1b Con1 replicon with genotype 4a NS5A gene); experiment: microbe, parasite or virus in culture; settings: Hepatitis C virus, read-out: 4a
Method in brief: as §2

[9] = genotype 2a JFH-1 RLuc replicon
[10] = read-out: 3a, genotype 3a NS5A chimeric replicon
[11] = read-out: 3a, genotype 3a replicon
[12] = 72 h, Table 1, genotype 1a H77 replicon, 72 hours
[13] = 72 h, Table 1, genotype 2a JFH-1 replicon, 72 hours
[14] = read-out: 3a, Table 1, genotype 3a NS5A chimeric replicon

| Compound | EC50 ([1]; genotype 1a H77 RLuc replicon) | EC50 [2, 9] | EC50 [3] | EC50 [4, 10] | EC50 [5] | EC50 [6] | EC50 [7] | EC50 ([1]; genotype 1a replicon) | EC50 ([2]; genotype 2a JFH-1 replicon) | EC50 [4, 11] | EC50 [8] | EC50 [1, 12] | EC50 ([7]; 72 h) | EC50 [2, 13] | EC50 [4, 14] |
| --- | --- | --- | --- | --- | --- | --- | --- | --- | --- | --- | --- | --- | --- | --- | --- |
| COC(=O)N[C@H](C(=O)N1[C@@H](C)CC[C@H]1c1ncc(-c2ccc3c(c2)COc2cc4c(ccc5nc([C@@H]6CCCN6C(=O)[C@@H](NC(=O)OC)[C@@H](C)OC)[nH]c54)cc2-3)[nH]1)C(C)C [Example 603] | 0.001 to 0.999 nM | 0.001 to 0.999 nM | 0.001 to 0.999 nM | 0.001 to 0.99 nM | 0.001 to 0.999 nM | 0.001 to 0.999 nM |  |  |  |  |  |  |  |  |  |
| COC(=O)N[C@H](C(=O)N1[C@@H](C)CC[C@H]1c1nc2ccc3cc4c(cc3c2[nH]1)OCc1cc(-c2cnc([C@@H]3C[C@H](C)CN3C(=O)[C@@H](NC(=O)OC)[C@@H](C)OC)[nH]2)ccc1-4)C(C)C [Example 612] | 0.001 to 0.999 nM | 0.001 to 0.999 nM | 0.001 to 0.999 nM | 0.001 to 0.99 nM | 0.001 to 0.999 nM | 0.001 to 0.999 nM |  |  |  |  |  |  |  |  |  |
| COC[C@H]1C[C@@H](c2ncc(-c3ccc4c(c3)COc3cc5c(ccc6nc([C@@H]7CC[C@H](C)N7C(=O)[C@@H](NC(=O)OC)C(C)C)[nH]c65)cc3-4)[nH]2)N(C(=O)[C@H](NC(=O)OC)c2ccccc2)C1 [Example 599] | 0.001 to 0.999 nM | 0.001 to 0.999 nM | 0.001 to 0.999 nM | 0.001 to 0.99 nM | 0.001 to 0.999 nM | 0.001 to 0.999 nM |  |  |  |  |  |  |  |  |  |
| COC[C@H]1C[C@@H](c2ncc(-c3ccc4c(c3)COc3cc5c(ccc6nc([C@@H]7CC[C@H](C)N7C(=O)[C@@H](NC(=O)OC)C(C)C)[nH]c65)cc3-4)[nH]2)N(C(=O)[C@@H](NC(=O)OC)C(C)C)C1 [Example 600] | 0.001 to 0.999 nM | 0.001 to 0.999 nM | 0.001 to 0.999 nM |  | 0.001 to 0.999 nM | 0.001 to 0.999 nM | 0.007 nM |  |  |  |  |  |  |  |  |
| COC(=O)N[C@H](C(=O)N1CCC[C@H]1c1nc(Cl)c(-c2cc3c4c(c2)OCc2cc(-c5[nH]c([C@@H]6CCCN6C(=O)[C@@H](NC(=O)OC)C(C)C)nc5Cl)cc(c2-4)OC3)[nH]1)C(C)C [Example 384] |  |  |  |  | 1 to 44 nM | 1 to 44 nM | 0.013 nM | 0.001 to 0.999 nM | 0.001 to 0.999 nM | 0.001 to 0.99 nM | 0.001 to 0.99 nM |  |  |  |  |
| COC[C@H]1C[C@@H](c2nc3ccc4cc(-c5ccc6c(ccc7nc([C@@H]8CCCN8C(=O)[C@@H](NC(=O)OC)C(C)C)[nH]c76)c5)ccc4c3[nH]2)N(C(=O)[C@H](N)c2ccccc2)C1 [Example 598] | 0.001 to 0.999 nM | 0.001 to 0.999 nM | 0.001 to 0.999 nM |  | 0.001 to 0.999 nM | 0.001 to 0.999 nM | 0.022 nM |  |  |  |  |  |  |  |  |
| COC[C@H]1C[C@@H](c2ncc(-c3ccc4c(c3)COc3cc5c(cc3-4)CCc3nc([C@@H]4CC[C@H](C)N4C(=O)[C@@H](NC(=O)OC)C(C)C)[nH]c3-5)[nH]2)N(C(=O)[C@H](NC(=O)OC)c2ccccc2)C1 [Example 608] | 0.001 to 0.999 nM | 0.001 to 0.999 nM | 0.001 to 0.999 nM |  | 0.001 to 0.999 nM | 0.001 to 0.999 nM | 0.017 nM |  |  |  |  |  |  |  |  |
| COC(=O)N[C@H](C(=O)N1CCC[C@H]1c1ncc(-c2cc3c4c(c2)OCc2cc(-c5cnc([C@@H]6CCCN6C(=O)[C@@H](NC(=O)OC)C(C)C)[nH]5)cc(c2-4)OC3)[nH]1)C(C)C [Example 9] |  |  | 1 to 44 nM |  |  | > 44 nM |  |  |  |  | 0.001 to 0.99 nM | 0.001 to 0.999 nM | 0.022 nM | 0.001 to 0.999 nM | 0.001 to 0.99 nM |
| COC(=O)N[C@H](C(=O)N1CCC[C@H]1c1ncc(-c2cc3c4c(c2)C(=O)c2cc(-c5cnc([C@@H]6CCCN6C(=O)[C@@H](NC(=O)OC)C(C)C)[nH]5)cc(c2-4)OC3)[nH]1)C(C)C [Example 24] |  |  | > 44 nM |  |  | > 44 nM |  |  |  |  | 0.001 to 0.99 nM | 0.001 to 0.999 nM | 0.013 nM | 0.001 to 0.999 nM | 0.001 to 0.99 nM |
| CCCC(=O)N[C@@H](C(=O)N1CCC[C@H]1c1ncc(-c2cc3c4c(c2)OCc2cc(-c5cnc([C@@H]6CCCN6C(=O)[C@H](NC(=O)CCC)c6ccccc6)[nH]5)cc(c2-4)OC3)[nH]1)c1ccccc1 [Example 470] |  |  | 0.001 to 0.999 nM |  |  | 0.001 to 0.999 nM | 0.148 nM | 0.001 to 0.999 nM | 0.001 to 0.999 nM | 0.001 to 0.99 nM | 0.001 to 0.99 nM |  |  |  |  |
| COC[C@H]1C[C@@H](c2ncc(-c3cc4c5c(c3)OCc3cc(-c6cnc([C@@H]7C[C@H](COC)CN7C(=O)[C@@H](NC(=O)OC)C(C)C)[nH]6)cc(c3-5)OC4)[nH]2)N(C(=O)[C@@H](NC(=O)OC)C(C)C)C1 [Example 513] | 0.001 to 0.999 nM | 0.001 to 0.999 nM | 1 to 44 nM | 0.001 to 0.99 nM |  | 1 to 44 nM | 0.068 nM |  |  |  | 0.001 to 0.99 nM |  |  |  |  |
| COC(=O)N[C@H](C(=O)N1[C@@H]2CC[C@@H](C2)[C@H]1c1nc2ccc3cc(-c4ccc5c(ccc6nc([C@@H]7CCCN7C(=O)[C@H](NC(=O)OC)c7ccccc7)[nH]c65)c4)ccc3c2[nH]1)C(C)C [Example 314] |  |  | 0.001 to 0.999 nM |  |  | 0.001 to 0.999 nM | 0.026 nM | 0.001 to 0.999 nM | 0.001 to 0.999 nM | 0.001 to 0.99 nM | 0.001 to 0.99 nM |  |  |  |  |
| COC(=O)N[C@H](C(=O)N1CCC[C@H]1c1ncc(-c2ccc(-c3ccc4c(ccc5nc([C@@H]6[C@H]7CC[C@H](C7)N6C(=O)[C@H](NC(=O)OC)c6ccccc6)[nH]c54)c3)cc2)[nH]1)C(C)C [Example 410] |  |  | > 44 nM |  |  | 1 to 44 nM | 0.018 nM | 0.001 to 0.999 nM | 0.001 to 0.999 nM | 0.001 to 0.99 nM | 0.001 to 0.99 nM |  |  |  |  |
| COC[C@H]1C[C@@H](c2nc3ccc4cc(-c5ccc(-c6cnc([C@@H]7CCCN7C(=O)[C@@H](NC(=O)OC)C(C)C)[nH]6)cc5)ccc4c3[nH]2)N(C(=O)[C@@H](NC(=O)OC)C(C)C)C1 [Example 417] |  |  | 1 to 44 nM |  |  | 1 to 44 nM | 0.024 nM | 0.001 to 0.999 nM | 0.001 to 0.999 nM | 0.001 to 0.99 nM | 0.001 to 0.99 nM |  |  |  |  |
